# Laboratory results as given in patent US20120232070A1, “Use of Indole Derivatives as Nurr-1 Activators for the Application Thereof as a Medicament for the Treatment of Parkinson's Disease” (Laboratoires Fournier SA, priority 2009, published 2012).
# Columns and labels:
# [1] = target: hNurr1_RXRγFL (NURR1/RXRγ heterodimer) (Homo sapiens, UniProt P43354+P48443); assay: Transactivation assay in Cos-7 cells, NURR-1-Gal4 / RXRγ, luciferase reporter; type: cell-based; conditions: for Emax: COS-7, read-out: hNurr1_RXRγFL Eff (%), efficacy in % relative to the reference XCT0135908 at 2·10^−5 M (=100%); for EC50: Cos-7 cells, overnight incubation
# Method in brief: (§1)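 Cos-7 cells co-transfected with human NURR-1-Gal4 chimera, human RXRα or RXRγ, and 5Gal4pGL3-TK-Luc reporter; compounds added at 10^−4 to 3·10^−10 M final, overnight incubation, luciferase read. Induction over each heterodimer's baseline expressed as % of reference RXR agonist XCT0135908 (2·10^−5 M) taken as 100%.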
# [2] = target: hNurr1_RXRαFL (NURR1/RXRα heterodimer) (Homo sapiens, UniProt P19793+P43354); assay: Transactivation assay in Cos-7 cells, NURR-1-Gal4 / RXRα, luciferase reporter; type: cell-based; conditions: for Emax: COS-7, read-out: hNurr1_RXRαFL Eff (%), efficacy in % relative to the reference XCT0135908 at 2·10^−5 M (=100%); for EC50: Cos-7 cells, overnight incubation
# Method in brief: as §1
# [3] = efficacy in % relative to the reference XCT0135908 at 2·10^−5 M (=100%)
# Sequence of hNurr1_RXRαFL (NURR1/RXRα heterodimer) (P19793 whole entry, the tested form may be a part): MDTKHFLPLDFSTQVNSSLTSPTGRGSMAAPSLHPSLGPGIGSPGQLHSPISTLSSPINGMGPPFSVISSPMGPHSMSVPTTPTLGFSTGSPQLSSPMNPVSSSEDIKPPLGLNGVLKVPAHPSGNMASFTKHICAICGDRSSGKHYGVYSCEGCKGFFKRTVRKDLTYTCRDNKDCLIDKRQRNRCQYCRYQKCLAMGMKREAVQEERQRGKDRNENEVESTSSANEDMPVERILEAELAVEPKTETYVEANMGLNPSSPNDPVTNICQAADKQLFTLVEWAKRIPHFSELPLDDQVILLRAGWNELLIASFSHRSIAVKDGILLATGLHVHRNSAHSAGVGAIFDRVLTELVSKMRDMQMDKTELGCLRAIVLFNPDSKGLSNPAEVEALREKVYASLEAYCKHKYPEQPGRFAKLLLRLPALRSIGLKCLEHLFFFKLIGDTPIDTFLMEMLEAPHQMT
# Sequence of hNurr1_RXRαFL (NURR1/RXRα heterodimer) (P43354 328-598): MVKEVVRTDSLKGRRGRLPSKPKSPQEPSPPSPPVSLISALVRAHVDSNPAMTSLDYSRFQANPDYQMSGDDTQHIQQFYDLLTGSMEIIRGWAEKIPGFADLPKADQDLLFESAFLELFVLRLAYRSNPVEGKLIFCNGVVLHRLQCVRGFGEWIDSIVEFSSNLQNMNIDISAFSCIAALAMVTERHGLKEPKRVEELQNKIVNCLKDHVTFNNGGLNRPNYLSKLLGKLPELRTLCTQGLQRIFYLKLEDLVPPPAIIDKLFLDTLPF
# Sequence of hNurr1_RXRγFL (NURR1/RXRγ heterodimer) (P43354 328-598): as above
# Sequence of hNurr1_RXRγFL (NURR1/RXRγ heterodimer) (P48443 whole entry, the tested form may be a part): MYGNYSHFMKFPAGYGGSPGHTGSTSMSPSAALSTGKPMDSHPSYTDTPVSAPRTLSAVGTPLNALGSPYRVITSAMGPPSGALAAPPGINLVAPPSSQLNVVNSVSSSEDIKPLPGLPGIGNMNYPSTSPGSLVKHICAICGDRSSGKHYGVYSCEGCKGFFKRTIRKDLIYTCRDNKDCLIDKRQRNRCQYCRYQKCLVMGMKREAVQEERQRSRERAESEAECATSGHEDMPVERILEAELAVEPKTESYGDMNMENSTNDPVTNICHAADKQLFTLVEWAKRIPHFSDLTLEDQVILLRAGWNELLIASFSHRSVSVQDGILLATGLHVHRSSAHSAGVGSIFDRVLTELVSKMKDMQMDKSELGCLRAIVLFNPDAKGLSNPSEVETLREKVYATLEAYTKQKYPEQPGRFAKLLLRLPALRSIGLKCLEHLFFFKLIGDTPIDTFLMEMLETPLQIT
Compound,Emax [1],EC50 [1],Emax [2],EC50 [2],"hNurr1_RXRγFL Eff (%) [1, 3]","hNurr1_RXRαFL Eff (%) [2, 3]"
"CC(C)(C)c1cccc(S(=O)(=O)n2c(Cc3ccc(-c4n[nH]c(=O)o4)cc3)cc3cc(C(F)(F)F)ccc32)c1 [Example 226, 5-[4-[[1-[[3-(1,1-dimethylethyl)phenyl]sulfonyl]-5-(trifluoromethyl)-1H-indol-2-yl]methyl]-phenyl]-3H-[1,3,4]oxadiazol-2-one]",70%,> 10000 nM,82%,465 nM,,
"CCCc1ccc(S(=O)(=O)n2c(Cc3ccc(C(=O)O)cc3)cc3cc(Cl)ccc32)cc1 [Example 152, 4-[[1-[4-propyl-phenylsulfonyl]-5-(chloro)-1H-indol-2-yl]methyl]benzoic acid]",75%,858 nM,87%,269 nM,,
COC(=O)c1ccc(Cc2cc3cc(Cl)ccc3n2S(=O)(=O)c2ccc3c(c2)C(C)(C)CO3)cc1 [Example 182],,154 nM,,55 nM,85%,83%
"O=C(O)c1ccc(Cc2cc3cc(C(F)(F)F)ccc3n2S(=O)(=O)c2cccc(C3CC3)c2)cc1 [Example 59, 4-[1-(3-cyclopropyl-benzenesulfonyl)-5-trifluoromethyl-1H-indol-2-ylmethyl]-benzoic acid]",31%,297 nM,70%,274 nM,,
"COc1ccc(S(=O)(=O)n2c(Cc3ccc(C(=O)O)cc3)cc3cc(C(F)(F)F)ccc32)cn1 [Example 120, 4-[[1-[(6-methoxy-3-pyridinyl)sulfonyl]-5-(trifluoromethyl)-1H-indol-2-yl]methyl]benzoic acid]",49%,661 nM,68%,202 nM,,
"O=C(O)c1ccc(Cc2cc3cc(C(F)(F)F)ccc3n2S(=O)(=O)c2ccc(Oc3ccccc3)nc2)cc1 [Example 130, 4-[[1-[(6-phenoxy-3-pyridinyl)sulfonyl]-5-(trifluoromethyl)-1H-indol-2-yl]methyl]benzoic acid]",22%,1700 nM,30%,347 nM,,
"CCC(C)(C)c1ccc(S(=O)(=O)n2c(Cc3ccc(C(=O)O)cc3)cc3cc(Cl)ccc32)cc1 [Example 168, 4-[[5-chloro-1-[[4-(1,1-dimethylpropyl)phenyl]sulfonyl]-1H-indol-2-yl]methyl]benzoic acid]",52%,501 nM,48%,422 nM,,
"O=C(O)c1ccc(Cc2cc3cc(C(F)(F)F)ccc3n2S(=O)(=O)c2ccc(Cl)cc2)cc1 [Example 136, 4-[[1-[4-chloro-phenylsulfonyl]-5-(trifluoromethyl)-1H-indol-2-yl]methyl]benzoic acid]",25%,> 10000 nM,35%,275 nM,,
"CC(C)(C)c1cccc(S(=O)(=O)n2c(Cc3cncc(C(=O)O)c3)cc3cc(C(F)(F)F)ccc32)c1 [Example 204, 3-[[1-[[3-(1,1-dimethylethyl)-phenyl]sulfonyl]-5-trifluoromethyl-1H-indol-2-yl]methyl]-5-pyridine carboxylic acid]",93%,195 nM,102%,107 nM,,
"COC(=O)c1ccc(Cc2cc3cc(C(F)(F)F)ccc3n2S(=O)(=O)c2ccc(C(C)C)cc2)cc1F [Example 1, 2-fluoro-4-[[1-[[4-(1-methylethyl)phenyl]sulfonyl]-5-(trifluoromethyl)-1H-indol-2-yl]methyl]benzoic acid, methyl ester]",60%,718 nM,65%,412 nM,,
"Cc1cc(C)n(-c2ccc(S(=O)(=O)n3c(Cc4ccc(C(=O)O)cc4)cc4cc(C(F)(F)F)ccc43)cc2)n1 [Example 131, 4-[[1-[4-(3,5-dimethyl-pyrazol-1-yl)-phenylsulfonyl]-5-(trifluoromethyl)-1H-indol-2-yl]methyl]benzoic acid]",21%,1480 nM,30%,603 nM,,
"O=C(O)c1ccc(Cc2cc3cc(Cl)ccc3n2S(=O)(=O)c2ccc3c(c2)OCO3)cc1 [Example 174, 4-[[1-(1.3-benzodioxol-5-ylsulfonyl)-5-chloro-1H-indol-2-yl]methyl]benzoic acid]",37%,813 nM,47%,593 nM,,
"CN1CCOc2ccc(S(=O)(=O)n3c(Cc4ccc(C(=O)O)cc4)cc4cc(C(F)(F)F)ccc43)cc21 [Example 45, 4-[[1-[(3,4-dihydro-4-methyl-2H-1,4-benzoxazin-6-yl)sulfonyl]-5-(trifluoromethyl)-1H-indol-2-yl]methyl]benzoic acid]",50%,201 nM,70%,97 nM,,
"O=C(O)c1ccc(F)c(Cc2cc3cc(C(F)(F)F)ccc3n2S(=O)(=O)c2ccc3c(c2)OCCO3)c1 [Example 214, 3-[[1-[(2,3-dihydro-benzo[1,4]dioxin-6-yl)sulfonyl]-5-trifluoromethyl-1H-indol-2-yl]methyl]-4-fluorobenzoic acid]",55%,804 nM,75%,681 nM,,
"CC1(C)CCc2ccc(S(=O)(=O)n3c(Cc4ccc(C(=O)O)cc4)cc4cc(Cl)ccc43)cc2O1 [Example 173, 4-[[5-chloro-1-[(3,4-dihydro-2,2-dimethyl-2H-1-benzopyran-7-yl)sulfonyl]-1H-indol-2-yl]methyl]-benzoic acid]",73%,498 nM,78%,145 nM,,
"COC(=O)c1ccc(Cc2cc3cc(C(C)(C)C)ccc3n2S(=O)(=O)c2cccc(C(C)(C)C)c2)cc1 [Example 108, 4-[[1-[[3-(1,1-dimethylethyl)phenyl]sulfonyl]-5-(tert-butyl)-1H-indol-2-yl]methyl]benzoic acid, methyl ester]",77%,646 nM,110%,157 nM,,
"CC(C)CCc1ccc(S(=O)(=O)n2c(Cc3ccc(C(=O)O)cc3)cc3cc(C(F)(F)F)ccc32)cc1 [Example 128, 4-[[1-[4-(3-methyl-butyl)-phenylsulfonyl]-5-(trifluoromethyl)-1H-indol-2-yl]methyl]benzoic acid]",36%,1590 nM,44%,337 nM,,
"COc1ccc(S(=O)(=O)n2c(Cc3ccc(C(=O)O)cc3)cc3cc(Cl)ccc32)cc1 [Example 165, 4-[[1-[4-methoxy-phenylsulfonyl]-5-(chloro)-1H-indol-2-yl]methyl]benzoic acid]",37%,2930 nM,51%,1140 nM,,
"CCCCCc1ccc(S(=O)(=O)n2c(Cc3ccc(C(=O)O)cc3)cc3cc(C(F)(F)F)ccc32)cc1 [Example 140, 4-[[1-[4-pentyl-benzenesulfonyl]-5-(trifluoromethyl)-1H-indol-2-yl]methyl]benzoic acid]",22%,387 nM,46%,368 nM,,
"Cc1cc(C(=O)O)ccc1Cc1cc2cc(C(F)(F)F)ccc2n1S(=O)(=O)c1cccc(C(C)(C)C)c1 [Example 197, 4-[[1-[[3-(1,1-dimethylethyl)phenyl]sulfonyl]-5-trifluoromethyl-1H-indol-2-yl]methyl]-3-methyl-benzoic acid]",52%,592 nM,68%,278 nM,,
"CCCc1ccc(S(=O)(=O)n2c(Cc3ccc(C(=O)O)cc3)cc3cc(C(F)(F)F)ccc32)cc1 [Example 139, 4-[[1-[4-propyl-phenylsulfonyl]-5-(trifluoromethyl)-1H-indol-2-yl]methyl]benzoic acid]",43%,344 nM,46%,202 nM,,
"Cc1ccc(S(=O)(=O)n2c(Cc3ccc(C(=O)O)cc3)cc3cc(Cl)ccc32)cc1 [Example 171, 4-[[5-chloro-1-[(4-methylphenyl)sulfonyl]-1H-indol-2-yl]methyl]benzoic acid]",31%,944 nM,40%,510 nM,,
"O=C(O)c1ccc(Cc2cc3cc(Cl)ccc3n2S(=O)(=O)c2ccc(F)c(F)c2)cc1 [Example 153, 4-[[1-[3-fluoro-4-fluoro-phenylsulfonyl]-5-(chloro)-1H-indol-2-yl]methyl]benzoic acid]",63%,1390 nM,85%,851 nM,,
"CC(C)(C)c1ccc(S(=O)(=O)n2c(Cc3ccc(C(=O)O)cc3)cc3cc(C(F)(F)F)ccc32)cc1 [Example 21, 4-[[1-[[4-(1,1-dimethylethyl)phenyl]sulfonyl]-5-(trifluoromethyl)-1H-indol-2-yl]methyl]benzoic acid]",35%,240 nM,46%,121 nM,,
"O=C(O)c1ccc(Cc2cc3cc(Cl)ccc3n2S(=O)(=O)c2ccc(-c3ccccc3)cc2)cc1 [Example 151, 4-[[1-[biphenyl-4-sulfonyl]-5-(chloro)-1H-indol-2-yl]methyl]benzoic acid]",17%,> 10000 nM,80%,427 nM,,
"O=C(O)c1ccc(Cc2cc3cc(C(F)(F)F)ccc3n2S(=O)(=O)c2ccc(Oc3ccccc3)cc2)cc1 [Example 144, 4-[[1-[4-phenoxy-phenylsulfonyl]-5-(trifluoromethyl)-1H-indol-2-yl]methyl]benzoic acid]",19%,> 10000 nM,30%,839 nM,,
